Measurements as given in US20230072683A1, “PYRIDO-PYRIMIDIN DERIVATIVES AND PHARMACEUTICAL COMPOSITION, FOR USE IN PREVENTING OR TREATING PI3 KINASE RELATED DISEASES, COMPRISING SAME AS ACTIVE INGREDIENT” (BORYUNG PHARMACEUTICAL CO., LTD, priority 2019, published 2023).
Read-outs that look alike come from different tables or passages of the source.

What was measured:
[1] = molecular target: PI3K-δ (PI3K(p1108/p857) (h)) (Homo sapiens, UniProt O00329); experiment: Evaluation of inhibitory activity against PI3K-δ (HTRF kinase assay); type: biochemical; conditions: for inhibition at 0.01 µM: compound concentration 0.01 μM, read-out: EXP_VALUE(% Inhibition) PI3K-δ 0.01 μM; for inhibition at 0.1 µM: read-out: EXP_VALUE(% Inhibition) PI3K-δ 0.1 μM
Method in brief: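 HTRF read-out (665/620 nm ratio ×10000) used Eu-labelled anti-GST, GST-tagged GRP1 PH domain and streptavidin-allophycocyanin after EDTA/PIP3 stop.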

[2] = molecular target: DNA-PK(h) (Homo sapiens, UniProt P78527); experiment: Evaluation of inhibitory activity against DNA-PK (HTRF kinase assay, GST-cMyc-p53 substrate); type: biochemical; conditions: for inhibition at 0.01 µM: compound concentration 0.01 μM, read-out: EXP_VALUE(% Inhibition) DNA-PK(h) 0.01 μM; for inhibition at 0.1 µM: read-out: EXP_VALUE(% Inhibition) DNA-PK(h) 0.1 μM
Method in brief: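 Human DNA-PK with 50 μM GST-cMyc-p53 substrate; reaction started with Mg/ATP, run 30 min at room temperature, stopped with EDTA. Phospho-Ser15 p53 detected by HTRF (Eu anti-phospho-Ser15, d2 anti-GST), signal = 10000×(Em 665/Em 620).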

Chain of PI3K-δ (PI3K(p1108/p857) (h)) (O00329 whole entry, the tested form may be a part): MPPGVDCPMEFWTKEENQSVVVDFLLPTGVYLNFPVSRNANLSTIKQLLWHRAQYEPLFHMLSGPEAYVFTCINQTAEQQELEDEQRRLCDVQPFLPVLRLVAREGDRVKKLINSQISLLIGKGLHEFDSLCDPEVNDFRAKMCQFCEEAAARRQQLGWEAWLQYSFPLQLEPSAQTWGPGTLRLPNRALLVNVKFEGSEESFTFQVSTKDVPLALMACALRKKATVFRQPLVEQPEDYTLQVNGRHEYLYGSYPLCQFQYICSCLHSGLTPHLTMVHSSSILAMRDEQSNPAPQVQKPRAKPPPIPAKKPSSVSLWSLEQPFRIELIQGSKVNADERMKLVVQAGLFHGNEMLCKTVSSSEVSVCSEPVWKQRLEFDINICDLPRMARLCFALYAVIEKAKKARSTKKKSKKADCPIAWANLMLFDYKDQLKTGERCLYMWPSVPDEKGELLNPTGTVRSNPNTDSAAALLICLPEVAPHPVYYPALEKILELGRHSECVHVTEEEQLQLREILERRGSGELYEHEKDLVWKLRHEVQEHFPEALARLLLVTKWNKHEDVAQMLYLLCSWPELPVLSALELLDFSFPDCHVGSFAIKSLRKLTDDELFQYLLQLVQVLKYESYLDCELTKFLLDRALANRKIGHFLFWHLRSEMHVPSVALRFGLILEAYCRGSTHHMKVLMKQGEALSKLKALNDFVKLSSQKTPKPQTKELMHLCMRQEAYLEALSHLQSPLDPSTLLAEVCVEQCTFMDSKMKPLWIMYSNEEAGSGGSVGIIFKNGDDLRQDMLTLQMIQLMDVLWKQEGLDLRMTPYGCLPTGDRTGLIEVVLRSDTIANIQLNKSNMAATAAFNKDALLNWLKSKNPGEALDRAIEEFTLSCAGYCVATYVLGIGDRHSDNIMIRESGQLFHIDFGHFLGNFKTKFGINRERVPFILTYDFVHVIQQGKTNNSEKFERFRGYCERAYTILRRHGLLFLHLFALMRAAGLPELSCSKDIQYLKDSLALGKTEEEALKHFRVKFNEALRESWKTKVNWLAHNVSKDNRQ
Chain of PI3K-δ (PI3K(p1108/p857) (h)) (P27986 whole entry partner, the tested form may be a part): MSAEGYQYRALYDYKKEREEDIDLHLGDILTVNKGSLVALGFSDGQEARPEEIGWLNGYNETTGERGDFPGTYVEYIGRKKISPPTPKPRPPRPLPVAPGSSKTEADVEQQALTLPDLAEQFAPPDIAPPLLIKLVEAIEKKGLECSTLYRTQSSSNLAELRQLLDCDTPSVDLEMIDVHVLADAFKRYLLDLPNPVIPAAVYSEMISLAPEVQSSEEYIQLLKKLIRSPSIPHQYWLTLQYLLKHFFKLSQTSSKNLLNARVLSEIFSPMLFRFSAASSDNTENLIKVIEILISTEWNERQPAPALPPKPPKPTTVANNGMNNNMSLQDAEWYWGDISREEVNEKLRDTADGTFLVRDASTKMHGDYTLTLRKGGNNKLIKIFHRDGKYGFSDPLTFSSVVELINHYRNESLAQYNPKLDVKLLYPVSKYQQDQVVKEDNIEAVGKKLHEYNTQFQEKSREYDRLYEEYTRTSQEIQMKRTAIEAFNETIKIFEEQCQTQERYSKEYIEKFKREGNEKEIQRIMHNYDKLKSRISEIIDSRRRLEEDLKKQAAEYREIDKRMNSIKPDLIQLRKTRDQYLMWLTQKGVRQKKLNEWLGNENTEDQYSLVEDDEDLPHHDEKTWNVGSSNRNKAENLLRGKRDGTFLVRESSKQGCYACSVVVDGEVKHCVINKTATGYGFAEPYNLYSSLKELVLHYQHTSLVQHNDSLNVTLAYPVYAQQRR

Compound | inhibition at 0.01 µM [1] | inhibition at 0.01 µM [2] | inhibition at 0.1 µM ([1]; compound concentration 0.1 μM) | inhibition at 0.1 µM ([2]; compound concentration 0.1 μM) | inhibition at 0.1 µM ([1]; compound at 0.1 μM) | inhibition at 0.1 µM ([2]; compound at 0.1 μM)
COc1cc(OC)cc(-c2cccc3c(Cl)c([C@H](C)Nc4ncnc5[nH]ccc(=O)c45)n(-c4ccccc4)c(=O)c23)c1 [Example 169, (S)-4-((1-(4-chloro-8-(3,5-dimethoxyphenyl)-1-oxo-2-phenyl-1,2-dihydroisoquinolin-3-yl)ethyl)amino)pyrido[2,3-d]pyrimidin-5(8H)-one] | 40% | 67% |  |  |  | 
C[C@H](Nc1ncnc2[nH]ccc(=O)c12)c1c(Cl)c2cccc(N3CCc4ccccc43)c2c(=O)n1-c1ccccc1 [Example 341, (S)-4-((1-(4-chloro-8-(indolin-1-yl)-1-oxo-2-phenyl-1,2-dihydroisoquinolin-3-yl)ethyl)amino)pyrido[2,3-d]pyrimidin-5(8H)-one] | 62% | 13% | 91% | 56% |  | 
Cc1c[nH]nc1-c1cccc2c(Cl)c([C@H](C)Nc3ncnc4[nH]ccc(=O)c34)n(-c3ccccc3)c(=O)c12 [Example 244, (S)-4-((1-(4-chloro-8-(4-methyl-1H-pyrazol-3-yl)-1-oxo-2-phenyl-1,2-dihydroisoquinolin-3-yl)ethyl)amino)pyrido[2,3-d]pyrimidin-5(8H)-one] | 65% | 7% |  |  |  | 
C[C@H](Nc1ncnc2[nH]ccc(=O)c12)c1c(Cl)c2cccc(C#Cc3nccs3)c2c(=O)n1-c1ccccc1 [Example 312, (S)-4-((1-(4-chloro-1-oxo-2-phenyl-8-(thiazol-2-ylethynyl)-1,2-dihydroisoquinolin-3-yl)ethyl)amino)pyrido[2,3-d]pyrimidin-5(8H)-one] | 46.8% | 39.8% | 77.1% | 84.3% |  | 
C[C@H](Nc1ncnc2[nH]ccc(=O)c12)c1c(Cl)c2cccc(S)c2c(=O)n1-c1ccccc1 [Example 427, (S)-4-((1-(4-chloro-8-mercapto-1-oxo-2-phenyl-1,2-dihydroisoquinolin-3-yl)ethyl)amino)pyrido[2,3-d]pyrimidin-5(8H)-one] |  |  |  |  | 38% | 7%

The next lines start with the values.

inhibition at 0.01 µM [1] | inhibition at 0.01 µM [2] | inhibition at 0.1 µM ([1]; compound concentration 0.1 μM) | inhibition at 0.1 µM ([2]; compound concentration 0.1 μM) | inhibition at 0.1 µM ([1]; compound at 0.1 μM) | inhibition at 0.1 µM ([2]; compound at 0.1 μM) | Compound
42% | 38% | 87% | 84% |  |  | C[C@H](Nc1ncnc2[nH]ccc(=O)c12)c1c(Cl)c2cccc(-c3cc(Cl)ccc3F)c2c(=O)n1-c1ccccc1 [Example 140, (S)-4-((1-(4-chloro-8-(5-chloro-2-fluorophenyl)-1-oxo-2-phenyl-1,2-dihydroisoquinolin-3-yl)ethyl)amino)pyrido[2,3-d]pyrimidin-5(8H)-one]
95% | 87% |  |  |  |  | COc1ccc(-c2cccc3c(Cl)c([C@H](C)Nc4ncnc5[nH]ccc(=O)c45)n(-c4ccccc4)c(=O)c23)cc1OC [Example 155, (S)-4-((1-(4-chloro-8-(3,4-dimethoxyphenyl)-1-oxo-2-phenyl-1,2-dihydroisoquinolin-3-yl)ethyl)amino)pyrido[2,3-d]pyrimidin-5(8H)-one]
75% | 21% |  |  |  |  | C[C@H](Nc1ncnc2[nH]ccc(=O)c12)c1c(Cl)c2cccc(-c3ccc(OC(F)(F)F)cc3)c2c(=O)n1-c1ccccc1 [Example 247, (S)-4-((1-(4-chloro-1-oxo-2-phenyl-8-(4-(trifluoromethoxy)phenyl)-1,2-dihydroisoquinolin-3-yl)ethyl)amino)pyrido[2,3-d]pyrimidin-5(8H)-one]
89% | 38% | 92% | 81% |  |  | Cc1ccc(F)cc1-c1cccc2c(Cl)c([C@H](C)Nc3ncnc4[nH]ccc(=O)c34)n(-c3ccccc3)c(=O)c12 [Example 127, (S)-4-((1-(4-chloro-8-(5-fluoro-2-methylphenyl)-1-oxo-2-phenyl-1,2-dihydroisoquinolin-3-yl)ethyl)amino)pyrido[2,3-d]pyrimidin-5(8H)-one]
